# Laboratory results published in ChEMBL document CHEMBL1201862, “PubChem BioAssay data set” (2004).
# Calls of active or inactive are those of the source. Rule as the data show it, for most assays here: actives have a measured AC50 and inactives only a lower limit.
# Key:
# HeLa = experiment: ATP-based viability loss in HeLa cells – cell-based, CellTiter-Glo luminescence, cherry-pick samples, cytotoxicity control for MITF activator project, dose response (AID 540259); assay type: functional; conditions: Homo sapiens
# Escherichia coli = experiment: microbe, parasite or virus in culture
# Trypsin = Trypsin (Sus scrofa, UniProt P00761); experiment: trypsin protease activity blockade – biochemical, quenched peptide fluorescence, cherry-pick, selectivity assay for Rce1 protease inhibitor project, dose response (AID 488789)
# CAAX prenyl protease 2 = CAAX prenyl protease 2 (Homo sapiens, UniProt Q9Y256); experiment: inhibition of Ras-converting CAAX protease Rce1 – biochemical, yeast membranes, quenched-peptide fluorescence, cherry-pick, dose response (AID 588849)
# [1] = molecular target: T1, Nuclear receptor subfamily 0 group B member 1 (Homo sapiens, UniProt P51843); experiment: Luminescence-based cell-based high throughput dose response assay for inhibitors of the orphan nuclear receptor subfamily 0, group B, member 1 (DAX1; NR0B1). [Related pubchem assays (depositor defined):AID504766, AID504790]; assay type: functional
# T1 sequence (P51843 whole entry): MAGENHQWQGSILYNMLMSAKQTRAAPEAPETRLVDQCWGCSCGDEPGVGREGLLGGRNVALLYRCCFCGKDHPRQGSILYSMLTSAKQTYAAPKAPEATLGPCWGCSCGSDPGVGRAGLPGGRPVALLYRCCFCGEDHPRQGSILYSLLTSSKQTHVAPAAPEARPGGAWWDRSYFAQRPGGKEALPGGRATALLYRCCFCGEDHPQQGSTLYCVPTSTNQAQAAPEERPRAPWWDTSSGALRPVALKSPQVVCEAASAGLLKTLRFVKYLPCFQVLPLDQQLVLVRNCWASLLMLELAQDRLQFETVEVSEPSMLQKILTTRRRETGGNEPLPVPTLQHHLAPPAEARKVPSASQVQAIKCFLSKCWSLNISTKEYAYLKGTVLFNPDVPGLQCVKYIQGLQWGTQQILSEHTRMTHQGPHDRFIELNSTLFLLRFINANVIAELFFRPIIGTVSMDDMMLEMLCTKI
# HEK293 = experiment: cells; assay type: functional, cell-based; conditions: Homo sapiens
# Trypsin, sequence (P00761 whole entry): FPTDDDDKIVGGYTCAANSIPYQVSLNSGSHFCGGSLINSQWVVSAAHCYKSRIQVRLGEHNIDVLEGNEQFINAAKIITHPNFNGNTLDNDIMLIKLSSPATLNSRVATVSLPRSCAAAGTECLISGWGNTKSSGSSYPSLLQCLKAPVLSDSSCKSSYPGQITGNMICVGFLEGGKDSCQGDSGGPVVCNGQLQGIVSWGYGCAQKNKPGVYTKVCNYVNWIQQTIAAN
# CAAX prenyl protease 2, sequence (Q9Y256 whole entry): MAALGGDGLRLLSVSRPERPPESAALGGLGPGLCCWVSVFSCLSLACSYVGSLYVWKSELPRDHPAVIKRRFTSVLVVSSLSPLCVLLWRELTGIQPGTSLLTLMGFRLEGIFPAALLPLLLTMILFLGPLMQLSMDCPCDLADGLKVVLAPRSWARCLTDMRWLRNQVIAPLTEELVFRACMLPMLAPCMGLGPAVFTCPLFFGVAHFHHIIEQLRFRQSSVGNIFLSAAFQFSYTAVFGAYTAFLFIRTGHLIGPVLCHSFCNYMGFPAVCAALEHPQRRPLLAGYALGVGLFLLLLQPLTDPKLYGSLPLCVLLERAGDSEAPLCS
SMILES,AC50 (HeLa),IC50 [1],IC50 (HEK293),other results
CCCC(=O)c1ccc(N2CCCCCC2)c(F)c1,205 µM (active),,,
CCCc1cc(-c2ccc3c(c2)COc2c4ccccc4nn2-3)on1,40 µM (active),,,
COc1ccc(-n2c(Cc3cccn3C)nnc2SCC(=O)Nc2ccc(C(C)=O)cc2)cc1,,,,AC50 (Escherichia coli): 56.8 µM (active)
OCCCNc1ncnc2sc(-c3ccccc3)cc12,,,,AC50 (Trypsin): 7.39 µM (active); AC50 (CAAX prenyl protease 2): 8.43 µM (active)
O=C(CCCC(=O)N1CCN(c2ccccc2F)CC1)c1ccccc1,,> 67.5 µM (inactive),> 67.5 µM (inactive),
CC(=O)Nc1cc(C)c2nc(NC(C)=O)sc2c1,,> 67.6 µM (inactive),> 67.6 µM (inactive),
